Source: patent US20200187502A1, “MICROBIOCIDAL OXADIAZOLE DERIVATIVES” (SYNGENTA PARTICIPATIONS AG, priority 2017, published 2020)

Key:
[1] = system: Puccinia recondita f. Sp. Tritici; assay: Fungicidal activity, wheat leaf disc preventative (brown rust); format: in vivo; conditions: foliar, 200 ppm in the applied formulation, wheat leaf segments cv. Kanzler, compared to untreated control, 7 to 9 days after application, read-out: disease control
Summary of the method: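 Wheat cv. Kanzler leaf segments on agar were sprayed with formulated compound in water, then inoculated with spores 1 day later. Incubated at 19° C, 75% rh, 12 h light/12 h dark; percent disease control versus untreated scored 7 to 9 days after application.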

[2] = system: Puccinia recondita f. Sp. Tritici; assay: Fungicidal activity, wheat leaf disc curative (brown rust); format: in vivo; conditions: foliar, 200 ppm in the applied formulation, wheat leaf segments cv. Kanzler, curative (applied 1 day after inoculation), compared to untreated control, 6 to 8 days after application, read-out: disease control
Summary of the method: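 Wheat cv. Kanzler leaf segments on agar were inoculated with fungal spore suspension, held dark at 19° C and 75% RH, then sprayed 1 day later with formulated compound diluted in water. Incubation continued at 19° C, 75% RH, 12 h light/12 h dark; percent disease control versus untreated was scored 6 to 8 days after application.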

[3] = system: Glomerella lacenarium (Colletotrichum lacenarium); assay: Fungicidal activity, liquid culture, cucumber preventative (anthracnose); format: cell-based; conditions: 20 ppm in the applied formulation, liquid culture in PDB, inhibition of growth measured photometrically 3 to 4 days after application, compared to untreated control, read-out: disease control
Summary of the method: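 Conidia from cryogenic storage were mixed into potato dextrose broth and added to DMSO solutions of test compound in microtiter plates. Plates were incubated at 24° C. and growth inhibition read photometrically 3 to 4 days after application, as percent antifungal activity versus untreated check.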

CNS(=O)(=O)N(Cc1ccc(-c2noc(C(F)(F)F)n2)s1)OC [Compound 1.32, 3-[5-[[methoxy(methylsulfamoyl)amino]methyl]-2-thienyl]-5-(trifluoromethyl)-1,2,4-oxadiazole]
≥ 80%: pest or weed control at 200 ppm [1] | pest or weed control at 200 ppm [2] | inhibition of growth at 20 ppm [3]

CC(=O)NCC(=O)N(Cc1ccc(-c2noc(C(F)(F)F)n2)s1)C(C)C [Compound 4.43, 2-acetamido-N-isopropyl-N-[[5-[5-(trifluoromethyl)-1,2,4-oxadiazol-3-yl]-2-thienyl]methyl]acetamide]
≥ 80%: pest or weed control at 200 ppm [1] | pest or weed control at 200 ppm [2] | inhibition of growth at 20 ppm [3]

CN(Cc1ccc(-c2noc(C(F)(F)F)n2)s1)C(=O)N(CC(F)F)C1CC1 [Compound 5.54, 1-cyclopropyl-1-(2,2-difluoroethyl)-3-methyl-3-[[5-[5-(trifluoromethyl)-1,2,4-oxadiazol-3-yl]-2-thienyl]methyl]urea]
≥ 80%: pest or weed control at 200 ppm [1] | pest or weed control at 200 ppm [2] | inhibition of growth at 20 ppm [3]

CCN(Cc1ccc(-c2noc(C(F)(F)F)n2)s1)C(=O)CC#N [Compound 4.29, 2-cyano-N-ethyl-N-[[5-[5-(trifluoromethyl)-1,2,4-oxadiazol-3-yl]-2-thienyl]methyl]acetamide]
≥ 80%: pest or weed control at 200 ppm [1] | pest or weed control at 200 ppm [2] | inhibition of growth at 20 ppm [3]

CC(C)N(Cc1ccc(-c2noc(C(F)(F)F)n2)s1)C(=O)CC(F)(F)F [Compound 4.50, 3,3,3-trifluoro-N-isopropyl-N-[[5-[5-(trifluoromethyl)-1,2,4-oxadiazol-3-yl]-2-thienyl]methyl]propanamide]
≥ 80%: pest or weed control at 200 ppm [1] | pest or weed control at 200 ppm [2] | inhibition of growth at 20 ppm [3]

CCN(Cc1ccc(-c2noc(C(F)(F)F)n2)s1)C(=O)C(=O)Cc1ccccc1 [Compound 6.43, N-ethyl-2-oxo-3-phenyl-N-[[5-[5-(trifluoromethyl)-1,2,4-oxadiazol-3-yl]-2-thienyl]methyl]propanamide]
≥ 80%: pest or weed control at 200 ppm [1] | pest or weed control at 200 ppm [2] | inhibition of growth at 20 ppm [3]

CCOC(=O)N(Cc1ccc(-c2noc(C(F)(F)F)n2)s1)OC [Compound 1.28, ethyl N-methoxy-N-[[5-[5-(trifluoromethyl)-1,2,4-oxadiazol-3-yl]-2-thienyl]methyl]carbamate]
≥ 80%: pest or weed control at 200 ppm [1] | pest or weed control at 200 ppm [2] | inhibition of growth at 20 ppm [3]

CCCC(=O)N(Cc1ccc(-c2noc(C(F)(F)F)n2)s1)C(C)C [Compound 4.44, N-isopropyl-N-[[5-[5-(trifluoromethyl)-1,2,4-oxadiazol-3-yl]-2-thienyl]methyl]butanamide]
≥ 80%: pest or weed control at 200 ppm [1] | pest or weed control at 200 ppm [2] | inhibition of growth at 20 ppm [3]

CCN(Cc1ccc(-c2noc(C(F)(F)F)n2)s1)C(=O)C(C)OC (stereo not drawn) [Compound 4.6, N-ethyl-2-methoxy-N-[[5-[5-(trifluoromethyl)-1,2,4-oxadiazol-3-yl]-2-thienyl]methyl]propanamide]
≥ 80%: pest or weed control at 200 ppm [1] | pest or weed control at 200 ppm [2] | inhibition of growth at 20 ppm [3]

COCC(=O)N(Cc1ccc(-c2noc(C(F)(F)F)n2)s1)OCC(F)F [Compound 4.62, N-(2,2-difluoroethoxy)-2-methoxy-N-[[5-[5-(trifluoromethyl)-1,2,4-oxadiazol-3-yl]-2-thienyl]methyl]acetamide]
≥ 80%: pest or weed control at 200 ppm [1] | pest or weed control at 200 ppm [2] | inhibition of growth at 20 ppm [3]

CCN(Cc1ccc(-c2noc(C(F)(F)F)n2)s1)C(=O)CC1CC1 [Compound 5.9, 2-cyclopropyl-N-ethyl-N-[[5-[5-(trifluoromethyl)-1,2,4-oxadiazol-3-yl]-2-thienyl]methyl]acetamide]
≥ 80%: pest or weed control at 200 ppm [1] | pest or weed control at 200 ppm [2] | inhibition of growth at 20 ppm [3]

COCCCC(=O)N(Cc1ccc(-c2noc(C(F)(F)F)n2)s1)C(C)C [Compound 4.48, N-isopropyl-4-methoxy-N-[[5-[5-(trifluoromethyl)-1,2,4-oxadiazol-3-yl]-2-thienyl]methyl]butanamide]
≥ 80%: pest or weed control at 200 ppm [1] | pest or weed control at 200 ppm [2] | inhibition of growth at 20 ppm [3]

CC(=O)N(C)Cc1ccc(-c2noc(C(F)(F)F)n2)s1 [Compound 4.41, N-methyl-N-[[5-[5-(trifluoromethyl)-1,2,4-oxadiazol-3-yl]-2-thienyl]methyl]acetamide]
≥ 80%: pest or weed control at 200 ppm [1] | pest or weed control at 200 ppm [2] | inhibition of growth at 20 ppm [3]

CN(Cc1ccc(-c2noc(C(F)(F)F)n2)s1)S(C)(=O)=O [Compound 6.27, N-methyl-N-[[5-[5-(trifluoromethyl)-1,2,4-oxadiazol-3-yl]-2-thienyl]methyl]methanesulfonamide]
≥ 80%: pest or weed control at 200 ppm [1] | pest or weed control at 200 ppm [2] | inhibition of growth at 20 ppm [3]

CCN(Cc1ccc(-c2noc(C(F)(F)F)n2)s1)C(=O)C(=O)c1ccccc1 [Compound 6.40, N-ethyl-2-oxo-2-phenyl-N-[[5-[5-(trifluoromethyl)-1,2,4-oxadiazol-3-yl]-2-thienyl]methyl]acetamide]
≥ 80%: pest or weed control at 200 ppm [1] | pest or weed control at 200 ppm [2] | inhibition of growth at 20 ppm [3]

O=C(N1CCCO1)N(Cc1ccc(-c2noc(C(F)(F)F)n2)s1)OCC(F)F [Compound 5.64, N-(2,2-difluoroethoxy)-N-[[5-[5-(trifluoromethyl)-1,2,4-oxadiazol-3-yl]-2-thienyl]methyl]isoxazolidine-2-carboxamide]
≥ 80%: pest or weed control at 200 ppm [1] | pest or weed control at 200 ppm [2] | inhibition of growth at 20 ppm [3]

CCN(Cc1ccc(-c2noc(C(F)(F)F)n2)s1)C(=O)C(=O)c1ccco1 [Compound 6.46, N-ethyl-2-(2-furyl)-2-oxo-N-[[5-[5-(trifluoromethyl)-1,2,4-oxadiazol-3-yl]-2-thienyl]methyl]acetamide]
≥ 80%: pest or weed control at 200 ppm [1] | pest or weed control at 200 ppm [2] | inhibition of growth at 20 ppm [3]

CCN(Cc1ccc(-c2noc(C(F)(F)F)n2)s1)C(=O)N(CC(F)F)C1CC1 [Compound 5.51, 1-cyclopropyl-1-(2,2-difluoroethyl)-3-ethyl-3-[[5-[5-(trifluoromethyl)-1,2,4-oxadiazol-3-yl]-2-thienyl]methyl]urea]
≥ 80%: pest or weed control at 200 ppm [1] | pest or weed control at 200 ppm [2] | inhibition of growth at 20 ppm [3]

CCN(Cc1ccc(-c2noc(C(F)(F)F)n2)s1)C(=O)CNC(C)=O [Compound 4.23, 2-acetamido-N-ethyl-N-[[5-[5-(trifluoromethyl)-1,2,4-oxadiazol-3-yl]-2-thienyl]methyl]acetamide]
≥ 80%: pest or weed control at 200 ppm [1] | pest or weed control at 200 ppm [2] | inhibition of growth at 20 ppm [3]

CCONC(=O)N(Cc1ccc(-c2noc(C(F)(F)F)n2)s1)OC [Compound 1.55, 3-ethoxy-1-methoxy-1-[[5-[5-(trifluoromethyl)-1,2,4-oxadiazol-3-yl]-2-thienyl]methyl]urea]
≥ 80%: pest or weed control at 200 ppm [1] | pest or weed control at 200 ppm [2] | inhibition of growth at 20 ppm [3]

CC(=O)C(=O)N(C)Cc1ccc(-c2noc(C(F)(F)F)n2)s1 [Compound 6.8, N-methyl-2-oxo-N-[[5-[5-(trifluoromethyl)-1,2,4-oxadiazol-3-yl]-2-thienyl]methyl]propanamide]
≥ 80%: pest or weed control at 200 ppm [1] | pest or weed control at 200 ppm [2] | inhibition of growth at 20 ppm [3]

O=C(Cc1ccccc1)C(=O)N(Cc1ccc(-c2noc(C(F)(F)F)n2)s1)C1CC1 [Compound 6.57, N-cyclopropyl-2-oxo-3-phenyl-N-[[5-[5-(trifluoromethyl)-1,2,4-oxadiazol-3-yl]-2-thienyl]methyl]propanamide]
≥ 80%: pest or weed control at 200 ppm [1] | pest or weed control at 200 ppm [2] | inhibition of growth at 20 ppm [3]

CCN(CC)C(=O)N(CC)Cc1ccc(-c2noc(C(F)(F)F)n2)s1 [Compound 4.73, 1,1,3-triethyl-3-[[5-[5-(trifluoromethyl)-1,2,4-oxadiazol-3-yl]-2-thienyl]methyl]urea]
≥ 80%: pest or weed control at 200 ppm [1] | pest or weed control at 200 ppm [2] | inhibition of growth at 20 ppm [3]

CCN(Cc1ccc(-c2noc(C(F)(F)F)n2)s1)C(=O)C(C)=O [Compound 6.6, N-ethyl-2-oxo-N-[[5-[5-(trifluoromethyl)-1,2,4-oxadiazol-3-yl]-2-thienyl]methyl]propanamide]
≥ 80%: pest or weed control at 200 ppm [1] | pest or weed control at 200 ppm [2] | inhibition of growth at 20 ppm [3]

O=C(C1CCCO1)N(Cc1ccc(-c2noc(C(F)(F)F)n2)s1)C1CC1 (stereo not drawn) [Compound 5.40, N-cyclopropyl-N-[[5-[5-(trifluoromethyl)-1,2,4-oxadiazol-3-yl]-2-thienyl]methyl]tetrahydrofuran-2-carboxamide]
≥ 80%: pest or weed control at 200 ppm [1] | pest or weed control at 200 ppm [2] | inhibition of growth at 20 ppm [3]
